Test results: patent US5502035A, “N-terminus modified analogs of LHRH” (Tap Holdings Inc., priority 1994, dated 1996)
Non-standard residues stand in square brackets, D forms with d. Residues, ends and D or L forms follow the SMILES beside them. *: point of attachment. Shikimoyl = O=C(C1=C[C@@H](O)[C@@H](O)[C@H](O)C1)*; Tetrahydrofuroyl(2R) = O=C([C@H]1CCCO1)*; dPhe(4-Cl) = N[C@H](Cc1ccc(Cl)cc1)C(=O)O; d1Nal = N[C@H](Cc1cccc2ccccc12)C(=O)O; d2Nal = N[C@H](Cc1ccc2ccccc2c1)C(=O)O; Lys(iPr) = CC(C)NCCCC[C@H](N)C(=O)O; NMeY = CN[C@@H](Cc1ccc(O)cc1)C(=O)O; dCit = NC(=O)NCCC[C@@H](N)C(=O)O; hArg = N=C(N)NCCCC[C@H](N)C(=O)O; d3Pal = N[C@H](Cc1cccnc1)C(=O)O; Isonicotinoyl = O=C(c1ccncc1)*; Salicyloyl = O=C(c1ccccc1O)*; Nicotinoyl = O=C(c1cccnc1)*; 2Furoyl = O=C(c1ccco1)*; X1 = O=C([C@@H]1CCCO1)*; azaGly = NNC(=O)O; βAla = NCCC(=O)O

Molecular target: T1, LHRH (Rattus norvegicus, UniProt P30969)
T1 construct: endogenous in cells; host or cells: rat pituitary cells (own knowledge of the cited Haviv 1989 method)
T1 sequence (P30969 1-327): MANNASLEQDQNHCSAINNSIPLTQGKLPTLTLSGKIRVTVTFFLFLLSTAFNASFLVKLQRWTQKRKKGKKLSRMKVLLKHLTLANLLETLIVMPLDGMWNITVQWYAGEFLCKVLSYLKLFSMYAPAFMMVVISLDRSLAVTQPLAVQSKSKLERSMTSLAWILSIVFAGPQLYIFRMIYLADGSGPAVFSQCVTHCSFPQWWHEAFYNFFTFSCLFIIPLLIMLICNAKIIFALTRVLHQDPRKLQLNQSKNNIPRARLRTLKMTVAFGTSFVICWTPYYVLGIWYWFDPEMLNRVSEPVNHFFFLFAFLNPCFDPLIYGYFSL
Assay: in vitro test for LHRH antagonist potency (pA2)
Format: cell-based
Conditions: negative logarithm of the antagonist concentration required to shift the response curve produced by the agonist leuprolide to two-fold higher concentration
Outline: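 Rat LHRH receptor in vitro functional test; pA2 = negative log of the antagonist concentration shifting the leuprolide agonist response curve to two-fold higher concentration.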

SMILES | Kb [pM]
CC(C)C[C@H](NC(=O)[C@@H](CCCCNC(=O)C1=C[C@@H](O)[C@@H](O)[C@H](O)C1)NC(=O)[C@H](Cc1ccc(O)cc1)N(C)C(=O)[C@H](CO)NC(=O)[C@@H](Cc1cccnc1)NC(=O)[C@@H](Cc1ccc(Cl)cc1)NC(=O)[C@@H](Cc1ccc2ccccc2c1)NC(=O)CNC(=O)c1cccnc1)C(=O)N[C@@H](CCCNC(=N)N)C(=O)N1CCC[C@H]1C(=O)N[C@H](C)C(N)=O [Example 14k, N-Nicotinyl-Gly-D2Nal-D4ClPhe-D3Pal-Ser-NMeTyr-DLys(Shik)-Leu-Arg-Pro-DAlaNH2] (Nicotinoyl-G[d2Nal][dPhe(4-Cl)][d3Pal]S[NMeY][dK](Shikimoyl)LRP[dA]-NH2) | 10
CC[C@H](C)[C@H](NC(=O)[C@@H](CCCCNC(=O)C1=C[C@@H](O)[C@@H](O)[C@H](O)C1)NC(=O)[C@H](Cc1ccc(O)cc1)N(C)C(=O)[C@H](CO)NC(=O)[C@@H](Cc1cccnc1)NC(=O)[C@@H](Cc1ccc(Cl)cc1)NC(=O)[C@@H](Cc1ccc2ccccc2c1)NC(=O)CNC(=O)c1cccnc1)C(=O)N[C@@H](CCCNC(=N)N)C(=O)N1CCC[C@H]1C(=O)N[C@H](C)C(N)=O [Example 23a, N-Nicotinyl-Gly-D2Nal-D4ClPhe-D3Pal-Ser-NMeTyr-DLys(Shik)-Ile-Arg-Pro-DAlaNH2] (Nicotinoyl-G[d2Nal][dPhe(4-Cl)][d3Pal]S[NMeY][dK](Shikimoyl)IRP[dA]-NH2) | 19.5
CC(C)C[C@H](NC(=O)[C@@H](CCCCNC(=O)c1cccnc1)NC(=O)[C@H](Cc1ccc(O)cc1)N(C)C(=O)[C@H](CO)NC(=O)[C@@H](Cc1cccnc1)NC(=O)[C@@H](Cc1ccc(Cl)cc1)NC(=O)[C@@H](Cc1ccc2ccccc2c1)NC(=O)CNC(=O)[C@@H]1CCCO1)C(=O)N[C@@H](CCCCNC(C)C)C(=O)N1CCC[C@H]1C(=O)N[C@H](C)C(N)=O [Example 4, N-(S)-Tetrahydrofur-2-oyl-Gly-D2Nal-D4ClPhe-D3Pal-Ser-NMeTyr-DLys(Nicotinyl) -Leu-Lys(N-epsilon-Isopropyl)-Pro-DAlaNH2] | 7.94
CC(C)C[C@H](NC(=O)[C@@H](CCCCNC(=O)c1cccnc1)NC(=O)[C@H](Cc1ccc(O)cc1)N(C)C(=O)[C@H](CO)NC(=O)[C@@H](Cc1cccnc1)NC(=O)[C@@H](Cc1ccccc1)NC(=O)[C@@H](Cc1ccc2ccccc2c1)NC(=O)CNC(=O)[C@@H]1CCCO1)C(=O)N[C@@H](CCCCNC(C)C)C(=O)N1CCC[C@H]1C(=O)N[C@H](C)C(N)=O [Example 94, N (S)-2-Tetrahydrofuroyl-Gly-D2Nal-DPhe-D3Pal-Ser-NMeTyr-DLys(Nic)-Leu-Lys(N-epsilon-Isopropyl)-Pro-DAlaNH2] (X1-G[d2Nal][dF][d3Pal]S[NMeY][dK](Nicotinoyl)L[Lys(iPr)]P[dA]-NH2) | 8.32
CC(C)C[C@@H](NC(=O)[C@@H](CCCCNC(=O)c1cccnc1)NC(=O)[C@H](Cc1ccc(O)cc1)N(C)C(=O)[C@H](CO)NC(=O)[C@@H](Cc1cccnc1)NC(=O)[C@@H](Cc1ccc(Cl)cc1)NC(=O)[C@@H](Cc1ccc2ccccc2c1)NC(=O)CNC(=O)[C@@H]1CCCO1)C(=O)N[C@@H](CCCCNC(C)C)C(=O)N1CCC[C@H]1C(=O)N[C@H](C)C(N)=O [Example 87, N (S)-2-Tetrahydrofuroyl-Gly-D2Nal-D4ClPhe-D3Pal-Ser-NMeTyr-DLys(N-epsilon-Nicotinyl) -DLeu-Lys(N-epsilon-Isopropyl)-Pro-DAlaNH2] | 269
CC(C)C[C@H](NC(=O)[C@@H](CCCNC(N)=O)NC(=O)[C@H](Cc1ccc(O)cc1)N(C)C(=O)[C@H](CO)NC(=O)[C@@H](Cc1cccnc1)NC(=O)[C@@H](Cc1ccc(Cl)cc1)NC(=O)[C@@H](Cc1ccc2ccccc2c1)NC(=O)CNC(=O)c1cccnc1)C(=O)N[C@@H](CCCNC(=N)N)C(=O)N1CCC[C@H]1C(=O)N[C@H](C)C(N)=O [Example 13c, N-Nicotinyl-Gly-D2Nal-D4ClPhe-D3Pal-Ser-NMeTyr-DCit-Leu-Arg-Pro-DAlaNH2] (Nicotinoyl-G[d2Nal][dPhe(4-Cl)][d3Pal]S[NMeY][dCit]LRP[dA]-NH2) | 3.55
CC(C)C[C@H](NC(=O)[C@@H](CCCCNC(=O)c1cccnc1)NC(=O)[C@H](Cc1ccc(O)cc1)N(C)C(=O)[C@H](CO)NC(=O)[C@@H](Cc1cccnc1)NC(=O)[C@@H](Cc1ccc(Cl)cc1)NC(=O)[C@@H](Cc1ccc2ccccc2c1)NC(=O)CCNC(=O)[C@@H]1CCCO1)C(=O)N[C@@H](CCCCNC(C)C)C(=O)N1CCC[C@H]1C(=O)N[C@H](C)C(N)=O [Example 96, N (S)-2-Tetrahydrofuroyl-Bala-D2Nal-D4ClPhe-D3Pal-Ser-NMeTyr-DLys(Nic)-Leu-Lys(Isp)-Pro-DAlaNH2] ({X1-βAla}-[d2Nal][dPhe(4-Cl)][d3Pal]S[NMeY][dK](Nicotinoyl)L[Lys(iPr)]P[dA]-NH2) | 27.5
CC(C)C[C@H](NC(=O)[C@@H](CCCCNC(=O)NNC(=O)c1ccco1)NC(=O)[C@H](Cc1ccc(O)cc1)N(C)C(=O)[C@H](CO)NC(=O)[C@@H](Cc1cccnc1)NC(=O)[C@@H](Cc1ccc(Cl)cc1)NC(=O)[C@@H](Cc1ccc2ccccc2c1)NC(=O)CNC(=O)C1CCCO1)C(=O)N[C@@H](CCCCNC(C)C)C(=O)N1CCC[C@H]1C(=O)N[C@H](C)C(N)=O (mixture of isomers) [Example 30a, N-(R,S)-Tetrahydrofur-2-oyl-Gly-D2Nal-D4ClPhe-D3Pal-Ser-NMeTyr-DLys(Azagly-2Fur)-Leu-Lys(Isp)-Pro-DAlaNH2] | 47.9
CC(C)C[C@H](NC(=O)[C@@H](CCCNC(N)=O)NC(=O)[C@H](Cc1ccc(O)cc1)N(C)C(=O)[C@H](CO)NC(=O)[C@@H](Cc1cccnc1)NC(=O)[C@@H](Cc1ccc(Cl)cc1)NC(=O)[C@@H](Cc1ccc2ccccc2c1)NC(=O)[C@H]1CCCO1)C(=O)N[C@@H](CCCNC(=N)N)C(=O)N1CCC[C@H]1C(=O)N[C@H](C)C(N)=O [Example 77, N-(R)-Tetrahydofur-2-oyl-D2Nal-D4ClPhe-D3Pal-Ser-NMeTyr-DCit-Leu-Arg-Pro-DAlaNH2] ({Tetrahydrofuroyl(2R)}-[d2Nal][dPhe(4-Cl)][d3Pal]S[NMeY][dCit]LRP[dA]-NH2) | 14.1
CC(C)C[C@H](NC(=O)[C@@H](CCCCNC(=O)c1cccnc1)NC(=O)[C@H](Cc1ccc(O)cc1)N(C)C(=O)[C@H](CO)NC(=O)[C@@H](Cc1cccnc1)NC(=O)[C@@H](Cc1ccc(Cl)cc1)NC(=O)[C@@H](Cc1ccc2ccccc2c1)NC(=O)CNC(=O)c1ccccc1O)C(=O)N[C@@H](CCCCNC(C)C)C(=O)N1CCC[C@H]1C(=O)N[C@H](C)C(N)=O [Example 2h, N-Salicyl-Gly-D2Nal-D4ClPhe-D3Pal-Ser-NMeTyr-DLys(N-epsilon-Nicotinyl) -Leu-Lys(N-epsilon-Isopropyl)-Pro-DAlaNH2] (Salicyloyl-G[d2Nal][dPhe(4-Cl)][d3Pal]S[NMeY][dK](Nicotinoyl)L[Lys(iPr)]P[dA]-NH2) | 10
CC(C)C[C@H](NC(=O)[C@@H](CCCCNC(=O)c1cccnc1)NC(=O)[C@H](Cc1ccc(O)cc1)N(C)C(=O)[C@H](CO)NC(=O)[C@@H](Cc1cccc2ccccc12)NC(=O)[C@@H](Cc1ccc(Cl)cc1)NC(=O)NNC(=O)c1cccnc1)C(=O)N[C@@H](CCCCNC(C)C)C(=O)N1CCC[C@H]1C(=O)N[C@H](C)C(N)=O [Example 33c, N-Nicotinyl-Azagly-D4ClPhe-D1Nal-Ser-NMeTyr-DLys(Nic)-Leu-Lys(Isp)-Pro-DAlaNH2] (Nicotinoyl-[azaGly][dPhe(4-Cl)][d1Nal]S[NMeY][dK](Nicotinoyl)L[Lys(iPr)]P[dA]-NH2) | 5.01
CC(C)C[C@H](NC(=O)[C@@H](CCCCNC(=O)c1cccnc1)NC(=O)[C@H](Cc1ccc(O)cc1)N(C)C(=O)[C@H](CO)NC(=O)[C@@H](Cc1cccnc1)NC(=O)[C@@H](Cc1ccc(Cl)cc1)NC(=O)[C@H](Cc1ccc2ccccc2c1)NC(=O)CNC(=O)[C@@H]1CCCO1)C(=O)N[C@@H](CCCCNC(C)C)C(=O)N1CCC[C@H]1C(=O)N[C@H](C)C(N)=O [Example 81, (S)-2-Tetrahydrofuroyl-Gly-2Nal-D4ClPhe-D3Pal-Ser-NMeTyr-DLys(N-epsilon-Nicotinyl) -Leu-Lys(N-epsilon-Isopropyl)-Pro-DAlaNH2] | 891
CC(C)C[C@H](NC(=O)[C@@H](CCCCNC(=O)C1=C[C@@H](O)[C@@H](O)[C@H](O)C1)NC(=O)[C@H](Cc1ccc(O)cc1)N(C)C(=O)[C@H](CO)NC(=O)[C@@H](Cc1cccnc1)NC(=O)[C@@H](Cc1ccc(Cl)cc1)NC(=O)[C@@H](Cc1ccc2ccccc2c1)NC(=O)CNC(=O)c1ccco1)C(=O)N[C@@H](CCCCNC(=N)N)C(=O)N1CCC[C@H]1C(=O)N[C@H](C)C(N)=O [Example 25c, N-(2-Furoyl)-Gly-D2Nal-D4ClPhe-D3Pal-Ser-NMeTyr-DLys(Shik)-Leu-Harg-Pro-DAlaNH2] (2Furoyl-G[d2Nal][dPhe(4-Cl)][d3Pal]S[NMeY][dK](Shikimoyl)L[hArg]P[dA]-NH2) | 1.7
CC(C)C[C@H](NC(=O)[C@@H](CCCCNC(=O)c1cccnc1)NC(=O)[C@H](Cc1ccc(O)cc1)N(C)C(=O)[C@H](CO)NC(=O)[C@@H](Cc1cccnc1)NC(=O)[C@@H](Cc1ccc(Cl)cc1)NC(=O)[C@@H](Cc1ccc2ccccc2c1)NC(=O)NNC(=O)c1ccncc1)C(=O)N[C@@H](CCCCNC(C)C)C(=O)N1CCC[C@H]1C(=O)N[C@H](C)C(N)=O [Example 37d, N-Isonicotinyl-Azagly-D2Nal-D4ClPhe-D3Pal-Ser-NMeTyr-DLys(Nic)-Leu-Lys(Isp)-Pro-DAlaNH2] (Isonicotinoyl-[azaGly][d2Nal][dPhe(4-Cl)][d3Pal]S[NMeY][dK](Nicotinoyl)L[Lys(iPr)]P[dA]-NH2) | 126
